According to patent publication US9302014B2, “Cell-penetrating peptides having a central hydrophobic domain” (Medical Research Council, priority 2011, dated 2016):
Non-standard residues stand in square brackets, D forms with d. No end group written: not given here. Ahx = NCCCCCC(=O)O; βAla = NCCC(=O)O

How the values were obtained:
dystrophin [1] = experiment: Western blot quantification of dystrophin protein in mdx mouse muscles; type: in vivo; conditions: lead PPMO comparison; 8 week old mdx mice, 12.5 mg/kg IV, 2 weeks
Protocol: The RTPCR representative images (FIG. 34d) illustrate high exon skipping efficiency in all tissues analysed. This is better shown by Real Time PCR (qRT-PCR) results for the quadriceps, diaphragm and heart (FIG. 34c). The delta 23 transcript is normalised against ‘total dystrophin’ for each muscle group (n=3). […] Western blots (FIG. 34e) were performed on the tissues of each mouse and were quantified against a 50% and 10% C57BL10 control.
Four and a half month old to 5½ month old mdx mice were used in these experiments (n=3). The experiments were carried out in the Biomedical Sciences Unit, University of Oxford according to procedures authorised by the UK Home Office. […]
Control and treated muscle samples were homogenised in lysis buffer comprising 75 mM Tris-HCl (pH 6.5) and 10% Sodium Dodecyl Sulphate complemented with 5% 2-mercaptoethanol. […] Protein levels were measured by Bradford assay (Sigma) and quantified using BSA standards. […] Primary antibody was detected by binding of horseradish peroxidise-conjugated anti-mouse IgG with lumigen. Western blots were imaged (LiCOR Biosciences) and analysed using the Odyssey imaging system.
The dystrophin protein level in PPMO treated mdx muscles was quantified by western blot analysis. The density of the dystrophin band was quantified using Licor software and vinculin was used as the loading control. […]

dystrophin [2] = experiment: Immunohistochemical staining and quantification of dystrophin in mdx mice after single IV injection; type: in vivo; conditions: 8 week old mdx mice, single 12.5 mg/kg IV, 2 weeks after injection
Source text: Given the potency of Pip5e-PMO in heart tissue, the aim of altering the sequence of the hydrophobic core (whilst maintaining the 5-aa length) was to identify peptides that might be more efficient at lower doses. These modifications included inversion of the hydrophobic region (Pip6a), substitution of tyrosine by isoleucine (Pip6b), substitution of glutamine in the Pip6a sequence by displacement of the arginine immediately flanking the core in the first arginine-rich flanking region (Pip6e), and a scrambled hydrophobic core sequence (Pip6f). All Pip6 peptide-PMO conjugates were administered to mdx mice as single 12.5 mg/kg intravenous injections via the tail vein and tissues were harvested 2 weeks later and assessed for activity at both RNA and protein levels.
Immunohistochemical staining quantification (FIGS. 34a, b) was performed as previously described [Malerba, A., et al., Chronic systemic therapy with low-dose morpholino oligomers ameliorates the pathology and normalizes locomotor behavior in mdx mice. Mol Ther, 2011. 19(2): p. 345-54; Arechavala-Gomeza, V., et al., Immunohistological intensity measurements as a tool to assess sarcolemma-associated protein expression. Neuropathol Appl Neurobiol, 2010. 36(4): p. 265-74.] and was achieved by taking 4 representative frames of the dystrophin staining and correlating this with laminin staining for each section (n=3) of the quadriceps, diaphragm and heart for each peptide-PMO treatment. Untreated mdx and treated mdx mice were normalised to C57BL10 mice. This method allows comparison of the staining intensity of dystrophin at the sarcolemma relative to laminin for each treatment group. Intensity ratios are normalised to C57BL10 samples and each region of interest at the sarcolemma (120 regions for each treatment group) is plotted on a scatter graph. […]
Transverse sections of tissue samples were cut (8 μm thick) for the examination of dystrophin expression. For dystrophin visualisation and quantification, sections were co-stained with rabbit-anti-dystrophin (Abcam) and rat anti-laminin (Sigma), and detected by goat-anti-rabbit IgG Alexa 594 and goat-anti-rat IgG 488 secondary antibodies respectively (Invitrogen). […] Quantitative immunohistochemistry was performed as previously described [Malerba, A., et al., Chronic systemic therapy with low-dose morpholino oligomers ameliorates the pathology and normalizes locomotor behavior in mdx mice. […] For quantification, 4 representative frames of the dystrophin and correlating laminin were taken for each section (n=3) of the quadriceps, diaphragm and heart for each treatment. […] The minimum and maximum fluorescence intensity for 120 regions were recorded for each treatment. […]

Pip9d2: Pip9 series peptide (SEQ ID Nos 320-328) conjugated to PMODMD (R[Ahx]RR[βAla]RFQILY[βAla]R[Ahx]R[βAla]; also: conjugated to PMO (PMODMD))
dystrophin protein level by western blot (vinculin loading control) (dystrophin [1]): negligible dystrophin production
dystrophin expression in the heart (dystrophin [2]): negligible dystrophin production
